Ends that are not written are not given here.
Assays:
[1] = tested on: human microvascular endothelial cell line HMEC-1; experiment: Membrane permeabilisation of HMEC-1 (LDH release); format: cell-based; settings: 24 h; for cytotoxicity to HMEC-1 cells: 100 μM, LDH release; for membrane lysis (LDH release) of HMEC-1: 10^−7 M to 10^−4 M
Description: The membrane permeabilisation of the human microvascular endothelial cell line, HMEC-1, was evaluated using the Pierce LDH Cytotoxicity Assay Kit (Thermo Fisher Scientific, San Francisco, CA, USA). HMEC-1 cells were cultured in MCDB-131 medium (Life Technology, Paisley, UK) with 10% FBS, 10 ng/ml epidermal growth factor (EGF) (Life Technology, Paisley, UK), 10 mM L-glutamine (Life Technology, Paisley, UK), and 1% penicillin-streptomycin (Sigma-Aldrich, St. Louise, MO, USA), at 37°C under 5% CO2. Cells were seeded in a 96-well plate at 5000 cells per well and cultured overnight to 80% confluency. Then, the cells were treated with different peptide solutions of gradient concentrations from 10^−7 M to 10^−4 M for 24 h at 37°C, 5% CO2, and H2O-treated cells were made as the spontaneous LDH release control. Lysis buffer was added to cells and incubated for 45 min at 37°C, 5% CO2, to produce the lysis buffer-treated cells which were referred to as maximum LDH release control. Then 50 μl of each sample supernatant was transferred to a 96-well flat-bottom plate in triplicate wells, to which 50 μl of reaction mixture was added, incubated, and protected from light at room temperature for 30 min. After addition of 50 μl Stop Solution to each sample well and removal of bubbles present in sample wells, the absorbance at 490 nm and 680 nm was measured. The absorbance values at 680 nm were subtracted from the absorbance values at 490 nm before calculation of the level of LDH release (cytotoxicity). The level of LDH release was calculated as (2) LDH release %=L−L0/L1−L0×100%, where L refers to sample-treated LDH activity, L0 to spontaneous (H2O-treated) LDH activity, and L1 to maximum (lysis buffer-treated) LDH activity.
Data analysis was performed using one-way analysis of variance followed by Dunnett's multiple comparison tests with maximum LDH release control in GraphPad Prism (Version 6.0; GraphPad Software Inc., San Diego, CA, USA).

E. coli = experiment: Membrane permeability on E. coli (ONPG / β-galactosidase); format: cell-based, Escherichia coli; settings: ONPG hydrolysis, absorbance 420 nm, 0-30 min, 37°C
Description: The membrane permeabilsation of E.coli was determined by measuring the release of β-galactosidase activity from E. coli into the culture medium with ONPG as the substrate. The log-phase E. coli was grown in MHB medium containing 2% lactose at 37°C, and the cells were pelleted. The cell pellets were suspended in 10 mM PBS (pH 7.4) containing 1.5 mM ONPG and diluted to 1 × 10^8 CFU/ml. Aliquots of cells were incubated with different concentrations of peptides at 37°C. Permeabilisation was measured at 420 nm every 2 min from 0 to 30 min, which reflects ONPG influx into the cells working as an indicator of the permeability of the tested peptides.

MRSA NCTC12493 = experiment: Antimicrobial test (broth microdilution); format: cell-based, methicillin-resistant S. aureus; settings: for MIC: MHB, 5 × 10^5 CFU/ml, 37°C overnight, 550 nm
Description: (§1) The antimicrobial activities were tested by the broth microdilution method and evaluated by the determination of MIC values against different tested microorganisms, the Gram-positive bacteria, S. aureus (NCTC 10788), E. faecalis (NCTC12697), and MRSA (NCTC 12493); the Gram-negative bacterium, E. coli (NCTC 10418); and the yeast, C. albicans (NCYC 1467). The microorganisms were cultured to their log phase in MHB and diluted to 5 × 10^5 CFU/ml then subsequently treated with peptide solutions of gradient concentrations. After incubation at 37°C overnight, the growth of microorganisms was detected at a wavelength of 550 nm using a Synergy HT plate reader (Biolise BioTek ELx808, Winooski, VT, USA). The MICs were determined as the lowest concentration of peptide where […].

S. aureus = experiment: Membrane permeability on S. aureus (SYTOX Green); format: cell-based, Staphylococcus aureus; settings: 2 h; for membrane-permeabilising activity on S. aureus: up to 512 μM
Description: The cell membrane permeability of S. aureus was tested with SYTOX Green Nucleic Acid Stain (Life Technologies, Carlsbad, CA, USA). The log-phase S. aureus was pelleted and suspended in 5% TSB in 0.85% NaCl solution to achieve 1 × 10^8 CFU/ml cells which was then treated with peptide solutions at 37°C for 2 h. The maximum membrane-compromised S. aureus was produced by 70% isopropanol treatment. Subsequently, cells were mixed with 5 μM SYTOX Green stain and incubated in the dark for 10 min. The fluorescence was measured in a 37°C Synergy HT plate reader (Biolise BioTek ELx808, Winooski, VT, USA) at excitation and emission wavelengths of 480 nm and 528 nm, respectively. The membrane permeability was calculated as (1) Membrane permeability%=F−F0/F1−F0×100%, where F represents the processed fluorescence intensity with peptide treatments, F0 represents the processed fluorescence intensity of untreated S. aureus, and F1 represents the processed fluorescence intensity in the maximum membrane-compromised S. aureus (70% isopropanol-treated). The fluorescence intensities of background were subtracted prior to calculation.

C. albicans NCYC1467 = experiment: Antimicrobial test (broth microdilution); format: cell-based, Candida albicans; settings: for MIC: MHB, 5 × 10^5 CFU/ml, 37°C overnight, 550 nm
Description: as §1

E. faecalis NCTC12697 = experiment: Antimicrobial test (broth microdilution); format: cell-based, Enterococcus faecalis; settings: for MIC: MHB, 5 × 10^5 CFU/ml, 37°C overnight, 550 nm
Description: as §1

horse erythrocytes = experiment: Haemolytic test; format: cell-based; settings: tested concentrations, horse red blood cells, 37°C, 2 h
Description: The haemolysis of Caeridins was tested on prepared defrinated horse red blood cells (TCS Biosciences Ltd., Buckingham, UK) by incubating equal volumes of peptide solutions with erythrocyte suspensions at 37°C for 2 H. Maximum haemolysis control was included by incubating equal volumes of 1% Triton X-100 (Sigma-Aldrich, St. Louis, MO, USA) with erythrocyte suspensions. Lysis of erythrocytes was detected by the measurement of supernatant absorbance at a wavelength of 550 nm using a Synergy HT plate reader (Biolise BioTek ELx808, Winooski, VT, USA). The level of haemolysis was as calculated as (3) Haemolysis %=A−A0/A1−A0×100%, where A represents the absorbance with peptide treatments, A0 represents the average absorbance in untreated erythrocytes, and A1 represents the average absorbance in the maximum haemolysis control (1% Triton X-100-treated).

[2] = tested on: rat urinary bladder smooth muscle; experiment: Rat urinary bladder smooth muscle test; settings: organ bath, 37°C, n = 5
Description: (§2) Female Wistar rats (250–300 g) were euthanized by CO2 asphyxiation followed by cervical dislocation under appropriate Home Office (UK) animal licenses. Full urinary bladder and ileum were carefully removed from the abdomen, then placed in cold Kreb's solution (118 mM NaCl, 4.7 mM KCl, 25 mM NaHCO3, 1.15 mM NaH2PO4, 2.5 mM CaCl2, 1.1 mM MgCl2, and 5.6 mM glucose), equilibrated with a carbogen mixture (95% O2, 5% CO2). The prepared smooth muscles linked with transducers were placed in 2 ml capacity organ baths with Kreb's solution flowing through at 2 ml/min and maintained at 37°C with constant bubbling of carbogen gas mixture (95% O2, […]) and equilibrated for 1 h prior to analysis. Then the viability of these smooth muscle preparations was tested by 60 mM KCl. Caeridins were tested at sequential molar concentrations in the range from 10^−6 M to 10^−11 M. Dose-response curves were depicted for each Caeridin on individual smooth muscle preparations (n = 5). Changes in tension of the smooth muscle preparations were detected by pressure transducers connected to a PowerLab System (ADInstruments Pty Ltd.). Data were recorded and calculated to obtain the means of responses and standard error of means (SEM). The dose-response curve of each Caeridin was established using best-fit algorithms through the data analysis package provided by GraphPad Prism (Version 6.0; GraphPad Software Inc., San Diego, CA, USA), and the comparative EC50 value for each peptide was depicted.

S. aureus NCTC10788 = experiment: Antimicrobial test (broth microdilution); format: cell-based, Staphylococcus aureus; settings: for MIC: MHB, 5 × 10^5 CFU/ml, 37°C overnight, 550 nm
Description: as §1

E. coli NCTC10418 = experiment: Antimicrobial test (broth microdilution); format: cell-based, Escherichia coli; settings: for MIC: MHB, 5 × 10^5 CFU/ml, 37°C overnight, 550 nm
Description: as §1

rat ileum smooth muscle = experiment: Rat ileum smooth muscle test; settings: organ bath, 37°C, n = 5
Description: as §2

| Compound | cytotoxicity to HMEC-1 cells [1] | MBC (MRSA NCTC12493) [µM] | MIC (MRSA NCTC12493) [µM] | MFC (C. albicans NCYC1467) [µM] | MIC (E. faecalis NCTC12697) [µM] | haemolytic activity (horse erythrocytes) | membrane lysis (LDH release) of HMEC-1 ([1]; relative to lysis buffer) | membrane permeabilisation of E. coli at maximum tested concentration (E. coli) | membrane-permeabilising activity on S. aureus (S. aureus) | MBC (S. aureus NCTC10788) [µM] | MIC (S. aureus NCTC10788) [µM] | MIC (C. albicans NCYC1467) [µM] | MBC (E. faecalis NCTC12697) [µM] | MBC (E. coli NCTC10418) [µM] | MIC (E. coli NCTC10418) [µM] | further results |
| --- | --- | --- | --- | --- | --- | --- | --- | --- | --- | --- | --- | --- | --- | --- | --- | --- |
| CC[C@H](C)[C@H](NC(=O)CN)C(=O)NCC(=O)N[C@@H](C)C(=O)N[C@H](C(=O)N[C@@H](CC(C)C)C(=O)N[C@@H](CCCCN)C(=O)N[C@H](C(=O)N[C@@H](CC(C)C)C(=O)N[C@H](C(=O)N[C@H](C(=O)NCC(=O)N[C@@H](CC(C)C)C(=O)N1CCC[C@H]1C(=O)N[C@@H](C)C(=O)N[C@@H](CC(C)C)C(=O)N[C@H](C(=O)N[C@@H](CO)C(=O)N[C@@H](Cc1c[nH]c2ccccc12)C(=O)N[C@H](C(=O)N[C@@H](CCCCN)C(=O)N[C@@H](CCCNC(=N)N)C(=O)N[C@@H](CCCCN)C(=O)N[C@@H](CCCNC(=N)N)C(=O)N[C@@H](CCC(N)=O)C(=O)N[C@@H](CCC(N)=O)C(N)=O)[C@@H](C)CC)[C@@H](C)CC)[C@@H](C)O)[C@@H](C)O)C(C)C)C(C)C [Melittin, reference compound] | significant cytotoxicity | 4 | 2 | 8 | 2 | eminent haemolysis from 1 μM |  |  |  |  |  |  |  |  |  | LDH release from HMEC-1 ([1]; 0.1 μM, relative to lysis buffer): approximately 10%; membrane permeabilisation of E. coli at MIC and MBC (E. coli; 1 × 10^8 CFU/ml, PBS pH 7.4): higher absorbance at 420 nm; membrane permeability of S. aureus at MBC (S. aureus; peptide at its MBC, 37°C, 1 × 10^8 CFU/ml, relative to 70% isopropanol): 100%; membrane permeability of S. aureus at MIC (S. aureus; peptide at its MIC, 37°C, 1 × 10^8 CFU/ml, relative to 70% isopropanol): approximately 50% |
| GLLDGLLGTLGL-NH2 [Caeridin-1] | weak cytotoxicity | > 512 | > 512 | > 512 | > 512 | weak haemolytic activities | lower than 5% | failed to induce membrane permeabilisation | barely showed membrane-permeabilising activity | > 512 | > 512 | > 512 | > 512 | > 512 | > 512 | maximum contraction effect on bladder smooth muscle preparations [2]: 0.3 g; EC50 ([2]; Kreb's solution, 10^−11 to 10^−6 M, read-out: EC50 inducing rat bladder smooth muscle contractions): 5.6 nM |
| N2H-GLLDSLLGGLGL-CONH2 [S5-Caeridin-1, novel Caeridin peptide from Litoria caerulea skin secretion, synthetic replicate, C-terminally amidated] | weak cytotoxicity | > 512 | > 512 | > 512 | > 512 | weak haemolytic activities | lower than 5% | failed to induce membrane permeabilisation | barely showed membrane-permeabilising activity | > 512 | > 512 | > 512 | > 512 | > 512 | > 512 | maximum relaxant effect on ileum smooth muscle preparations (rat ileum smooth muscle): 0.2 g; EC50 (rat ileum smooth muscle; Kreb's solution, 10^−11 to 10^−6 M, read-out: EC50 causing rat ileum smooth muscle relaxations): 9.5 nM |
| RPPGFSPFR [Bradykinin, reference compound] [listing 1 of 2 here] |  | > 512 | > 512 | > 512 | > 512 |  |  | failed to induce membrane permeabilisation | barely showed membrane-permeabilising activity | > 512 | > 512 | > 512 | > 512 | > 512 | > 512 |  |
| RPPGFSPFR [Bradykinin, reference compound] [listing 2 of 2 here] | weak cytotoxicity |  |  |  |  | weak haemolytic activities | lower than 5% |  |  |  |  |  |  |  |  |  |
